This passage reports remaining activity results from article PMC10878397, “Development of Potent Dual BET/HDAC Inhibitors via Pharmacophore Merging and Structure-Guided Optimization” (ACS Chemical Biology, 2024).

Common to all, as to assay: HDAC selectivity profile (Reaction Biology)
Holding throughout (format): biochemical

The target of one experiment is T1, HDAC10 (Homo sapiens, UniProt Q969S8).
T1 construct: purchased Reaction Biology
The note with it: no inhibitor control as 100%, read-out: % Enzyme activity HDAC10. The protocol:
(§1) The reactions were performed by Reaction Biology using a protease-coupled assay with fluorogenic substrates where, after deacetylation by the HDAC and subsequent proteolytic digest, the free fluorophore 7-amino-4-methyl coumarin (AMC) can be quantified.[60] The following substrates were used for activity assays: HDACs 1, 2, 3, and 6: fluorogenic tetrapeptide from p53 residues 379–382 (RHKK(Ac) AMC); HDACs 4, 5, 7, 9, and 11: fluorogenic HDAC class2a substrate (trifluoroacetyl lysine); HDAC8: twice acetylated fluorogenic tetrapeptide from p53 residues 379–382 (RHK(Ac) K(Ac) AMC); HDAC10: Ac-spermidine-AMC. Data are given as % residual activity compared with the uninhibited control reaction.

The target in the next experiment is T2, HDAC6 (Homo sapiens, UniProt Q9UBN7).
T2 construct: purchased Reaction Biology
T2 sequence (Q9UBN7 whole entry): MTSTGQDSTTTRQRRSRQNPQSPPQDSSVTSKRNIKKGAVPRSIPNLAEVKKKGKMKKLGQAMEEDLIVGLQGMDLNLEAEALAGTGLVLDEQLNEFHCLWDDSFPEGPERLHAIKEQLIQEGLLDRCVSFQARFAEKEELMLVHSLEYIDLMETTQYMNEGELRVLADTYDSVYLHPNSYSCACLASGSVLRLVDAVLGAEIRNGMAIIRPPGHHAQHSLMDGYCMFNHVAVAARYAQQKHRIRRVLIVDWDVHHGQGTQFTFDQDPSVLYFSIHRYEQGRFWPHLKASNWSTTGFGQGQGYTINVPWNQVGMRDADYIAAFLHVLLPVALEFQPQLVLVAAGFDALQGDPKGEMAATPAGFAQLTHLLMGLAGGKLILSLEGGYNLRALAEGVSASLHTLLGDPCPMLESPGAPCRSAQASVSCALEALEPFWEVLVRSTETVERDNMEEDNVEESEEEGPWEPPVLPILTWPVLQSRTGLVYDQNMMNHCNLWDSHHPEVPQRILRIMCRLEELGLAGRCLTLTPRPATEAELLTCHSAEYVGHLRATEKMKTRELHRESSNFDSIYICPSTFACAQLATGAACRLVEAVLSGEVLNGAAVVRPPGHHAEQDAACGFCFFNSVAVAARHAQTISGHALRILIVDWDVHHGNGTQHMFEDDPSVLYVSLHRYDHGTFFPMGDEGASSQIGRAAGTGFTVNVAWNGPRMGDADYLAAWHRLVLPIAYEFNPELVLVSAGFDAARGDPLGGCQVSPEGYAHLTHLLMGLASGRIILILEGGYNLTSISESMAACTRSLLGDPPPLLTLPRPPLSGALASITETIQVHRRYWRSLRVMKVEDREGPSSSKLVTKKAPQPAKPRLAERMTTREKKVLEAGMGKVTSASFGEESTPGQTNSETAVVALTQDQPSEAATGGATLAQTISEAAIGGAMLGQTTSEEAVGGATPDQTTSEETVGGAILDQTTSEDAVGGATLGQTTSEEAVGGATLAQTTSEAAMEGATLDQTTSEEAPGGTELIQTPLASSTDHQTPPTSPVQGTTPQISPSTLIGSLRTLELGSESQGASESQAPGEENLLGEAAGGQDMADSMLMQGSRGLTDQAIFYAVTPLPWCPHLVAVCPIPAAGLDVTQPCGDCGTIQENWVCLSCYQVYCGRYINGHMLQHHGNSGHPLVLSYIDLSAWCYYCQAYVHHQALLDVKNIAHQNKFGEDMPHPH
The note with it: no inhibitor control as 100%, read-out: % Enzyme activity HDAC6. As for the experimental part:
as §1

In a further experiment the target is T3, HDAC9 (Homo sapiens, UniProt Q9UKV0).
T3 construct: purchased Reaction Biology
T3 sequence (Q9UKV0 whole entry): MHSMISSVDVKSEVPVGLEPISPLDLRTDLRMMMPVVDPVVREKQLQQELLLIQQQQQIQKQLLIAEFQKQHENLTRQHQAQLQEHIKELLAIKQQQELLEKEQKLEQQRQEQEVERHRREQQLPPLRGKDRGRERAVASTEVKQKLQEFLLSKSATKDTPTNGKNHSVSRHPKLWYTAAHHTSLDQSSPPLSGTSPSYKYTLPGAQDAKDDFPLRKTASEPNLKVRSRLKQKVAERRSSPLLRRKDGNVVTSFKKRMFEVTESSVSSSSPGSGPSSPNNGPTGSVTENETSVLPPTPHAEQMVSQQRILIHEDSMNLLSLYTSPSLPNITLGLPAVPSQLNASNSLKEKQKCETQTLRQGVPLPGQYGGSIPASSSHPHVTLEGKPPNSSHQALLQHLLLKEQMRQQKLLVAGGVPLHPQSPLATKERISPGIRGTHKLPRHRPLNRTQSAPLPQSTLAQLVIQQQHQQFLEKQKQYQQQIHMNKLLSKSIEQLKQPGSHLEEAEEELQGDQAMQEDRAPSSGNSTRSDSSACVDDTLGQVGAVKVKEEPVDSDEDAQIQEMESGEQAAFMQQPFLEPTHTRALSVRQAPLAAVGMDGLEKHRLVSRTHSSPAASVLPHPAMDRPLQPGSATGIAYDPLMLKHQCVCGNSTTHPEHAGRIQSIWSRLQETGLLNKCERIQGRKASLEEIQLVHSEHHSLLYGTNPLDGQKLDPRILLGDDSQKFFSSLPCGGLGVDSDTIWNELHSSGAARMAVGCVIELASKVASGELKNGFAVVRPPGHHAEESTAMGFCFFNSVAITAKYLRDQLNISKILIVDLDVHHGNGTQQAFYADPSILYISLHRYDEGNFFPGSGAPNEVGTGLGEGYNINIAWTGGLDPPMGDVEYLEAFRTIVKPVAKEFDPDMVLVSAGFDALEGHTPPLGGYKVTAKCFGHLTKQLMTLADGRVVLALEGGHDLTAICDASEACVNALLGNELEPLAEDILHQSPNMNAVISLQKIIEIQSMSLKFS
The note with it: no inhibitor control as 100%, read-out: % Enzyme activity HDAC9. As for the experimental part: as §1

T1 sequence (Q969S8 whole entry): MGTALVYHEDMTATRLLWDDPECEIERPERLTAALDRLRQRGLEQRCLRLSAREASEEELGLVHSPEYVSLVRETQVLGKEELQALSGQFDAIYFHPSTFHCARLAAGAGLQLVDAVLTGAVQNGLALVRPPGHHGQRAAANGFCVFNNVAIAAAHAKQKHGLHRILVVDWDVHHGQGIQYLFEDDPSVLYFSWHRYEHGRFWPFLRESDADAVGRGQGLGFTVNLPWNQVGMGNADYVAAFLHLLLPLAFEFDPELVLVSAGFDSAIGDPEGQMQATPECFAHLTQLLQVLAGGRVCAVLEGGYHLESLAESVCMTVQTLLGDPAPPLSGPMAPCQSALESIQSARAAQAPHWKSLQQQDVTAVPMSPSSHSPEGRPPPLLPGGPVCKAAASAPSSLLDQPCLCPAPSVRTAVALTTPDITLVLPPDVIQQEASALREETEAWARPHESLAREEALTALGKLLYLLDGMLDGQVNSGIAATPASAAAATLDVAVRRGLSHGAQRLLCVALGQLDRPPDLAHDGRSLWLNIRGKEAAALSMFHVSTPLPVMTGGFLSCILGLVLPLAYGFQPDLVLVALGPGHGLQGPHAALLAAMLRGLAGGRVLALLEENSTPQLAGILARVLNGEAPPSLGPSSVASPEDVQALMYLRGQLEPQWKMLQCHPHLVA

For the molecule `Cn1cc(-c2ccc(C(=O)Nc3cc(-c4ccccc4)ccc3N)nc2)c2cc[nH]c2c1=O` [NB512], the remaining activity at 1 µM was 98.1% on HDAC10 (1 µM NB512), 100% at HDAC6 (1 µM NB512) and 96.2% at HDAC9 (1 µM NB512). For the same molecule, the remaining activity at 10 µM came to 98.6% at HDAC10 (10 µM NB512), 90.2% on HDAC6 (10 µM NB512) and 85% on HDAC9 (10 µM NB512).
